Measured values from paper PMC3833878, “In Silico Molecular Comparisons of C. elegans and Mammalian Pharmacology Identify Distinct Targets That Regulate Feeding” (PLoS Biology, 2013).

How the values were obtained:
wild-type C. elegans = experiment: Pharyngeal pumping assay; format: in vivo; conditions: for EC50: Caenorhabditis elegans, read-out: EC50 of the dose-dependent increase in the pharyngeal pumping rate
Method: (§1) Compounds at 1,000× stock concentrations (0.1–10 mM) in DMSO or an equal volume of DMSO were diluted in a suspension of E. coli OP-50 (100 µl of a 3× concentrated overnight culture in LB broth) and absorbed as a single drop onto 3.5 cm plates containing 2.5 ml of NGM agar forming a well-defined lawn of bacteria. For developmental exposures, 20–30 synchronized first larval stage C. elegans derived from alkaline hypochlorite treatment of gravid adults were applied to the preseeded plates and cultured until assay at mid-L4 stage (2 d, 20°C) or as day 1 gravid adults (3 d, 20°C). For naïve adult exposures, synchronized first larval stage animals were cultured on NGM-agar plates seeded with E. coli OP-50 for 3 d at 20°C, then transferred to assay plates, and pumping was assayed 1 to 16 h later. Comparisons between vehicle-treated and compound-treated animals were always performed between animals at the same developmental stage and same exposure time. Pharyngeal pumping was counted by live observation at 115–200× magnification using a stereo microscope and recorded at 10 s intervals using a manually controlled digital cell counter. Alternatively, C. elegans pumping was recorded for longer intervals (30–60 s) using bright-field time-lapse microscopy at 120× magnification with a 20 images per second acquisition rate. The resulting movies were analyzed manually at a playback rate of 10 images per second.
(§2) Significance was determined by one-way ANOVA applying a Dunnett's posttest when comparing multiple treatments to a single control and a Bonferroni posttest when comparing the more than two treatments against one another. For pairwise nonrepeated measured comparisons, a student's t test was used. To express data as a percentage of control, the pumping rates of compound-treated animals were divided by the mean pumping rate of the DMSO-treated wild-type animals measured in the same experiment, unless indicated otherwise. Error bars on the control samples indicate the variation around that mean, which is utilized in all statistical calculations.

Flt-3 receptor = molecular target: Flt-3 receptor; design: method as in PMID 20153646; conditions: cited from earlier work
tachykinin receptor-2 = tachykinin receptor-2 (Homo sapiens, UniProt P21452); experiment: Cell-based Ca flux assay (Multispan)
Method: (§3) Tachykinin, ghrelin, and calcium-sensing receptor activity were measured using a cell-based Ca flux assay by Multispan, Inc. (Hayward, California). Cholescystokinin A and B receptors were assayed for effects on cAMP production, and nicotinic acid receptor activity was measured in a cell-based assay of forskolin-stimulated cAMP production by Multispan, Inc. […], PP2A phosphatase activity assays were performed by CEREP (Celle l'Evescault, France) using PP2A from human erythrocytes. Phospholipase C from Bacillus cereus was assayed by CEREP, Inc. using glycero-phosphatidyl ethanolamine as a substrate, monitoring diacyl glycerol production. Radioligand binding assays for PPAR-α, γ, δ and the androgen receptor were performed by CEREP, Inc. CARNA Biosciences (Kobe, Japan) performed in vitro kinase activity assays using recombinant catalytic domains and measured phosphorylation of an Src-derived peptide for Flt-3 and phosphatidyl inositol for PI3KCA. Radioligand binding assays for the oxytocin receptor, D4 dopamine receptor, cannabinoid CB2 receptor, and angiotensin type I and II receptors were performed as described previously, as were cell-based activity assays for mGluR 1a, 2, 4, 5, 6, and 8 [60]–[62].

tachykinin receptor-3 = tachykinin receptor-3 (Homo sapiens, UniProt P29371); experiment: Cell-based Ca flux assay (Multispan)
Method: as §3

tachykinin receptor-1 = tachykinin receptor-1 (Homo sapiens, UniProt P25103); experiment: Cell-based Ca flux assay, cells stimulated by neurokinin-1 peptide (Multispan); conditions: marked with footnote d in Figure 2
Method: as §3
Supplementary file pbio.1001712.s001.tif: Figure S1 Dose-response measurements that validate SEA predictions for GPCRs. […]

tkr-1(RNAi) C. elegans = experiment: Pharyngeal pumping assay, compound on RNAi-treated animals; format: in vivo
Method: Synchronized first larval stage C. elegans were cultured for 3 d at 20°C on a lawn of HT115 E. coli induced with IPTG to express double-stranded RNAi as described.
Compounds at 1,000× stock concentrations (0.1–10 mM) in DMSO or an equal volume of DMSO were diluted in a suspension of E. coli OP-50 (100 µl of a 3× concentrated overnight culture in LB broth) and absorbed as a single drop onto 3.5 cm plates containing 2.5 ml of NGM agar forming a well-defined lawn of bacteria. […] Pharyngeal pumping was counted by live observation at 115–200× magnification using a stereo microscope and recorded at 10 s intervals using a manually controlled digital cell counter. Alternatively, C. elegans pumping was recorded for longer intervals (30–60 s) using bright-field time-lapse microscopy at 120× magnification with a 20 images per second acquisition rate. The resulting movies were analyzed manually at a playback rate of 10 images per second.
Significance was determined by one-way ANOVA applying a Dunnett's posttest when comparing multiple treatments to a single control and a Bonferroni posttest when comparing the more than two treatments against one another. For pairwise nonrepeated measured comparisons, a student's t test was used. […]

C. elegans = tested on: C. elegans; design: method as in earlier work; conditions: earlier phenotypic screen ref 11; cited from earlier work
[1] = tested on: gnrr-1(ok238) mutant C. elegans; experiment: Pharyngeal pumping assay, compound on high-feeding mutant; format: in vivo; conditions: percentage of the mutant's pumping rate on DMSO; 10 µM B16, D20, K9, F15, H6; 200 nM L-371257, SB 222200; 2 µM MMPIP, 5-flurox
Method: as §1, §2
(§4) The pumping rates are expressed as a percentage of the mutant’s pumping rate on DMSO, the vehicle control. p-values were calculated relative to DMSO treatment of each mutant by one-way ANOVA using Dunnett’s multiple comparison test.

[2] = tested on: gnrr-3(tm4152) mutant C. elegans; experiment: as above; format: in vivo; conditions: percentage of the mutant's pumping rate on DMSO; 10 µM B16, D20, K9, F15, H6; 200 nM L-371257, SB 222200; 2 µM MMPIP, 5-flurox
Method: as §1, §2, §4

[3] = tested on: mgl-2(tm355) mutant C. elegans; experiment: as above; format: in vivo; conditions: percentage of the mutant's pumping rate on DMSO; 10 µM B16, D20, K9, F15, H6; 200 nM L-371257, SB 222200; 2 µM MMPIP, 5-flurox
Method: as §1, §2, §4

[4] = tested on: ver-2(ok897) mutant C. elegans; experiment: as above; format: in vivo; conditions: percentage of the mutant's pumping rate on DMSO; 10 µM B16, D20, K9, F15, H6; 200 nM L-371257, SB 222200; 2 µM MMPIP, 5-flurox
Method: as §1, §2, §4

[5] = tested on: ver-3(ok891) mutant C. elegans; experiment: as above; format: in vivo; conditions: percentage of the mutant's pumping rate on DMSO; 10 µM B16, D20, K9, F15, H6; 200 nM L-371257, SB 222200; 2 µM MMPIP, 5-flurox
Method: as §1, §2, §4

Oxtr = molecular target: Oxtr; design: method as in PMID 7473590; conditions: cited from earlier work

Sequence of tachykinin receptor-2 (P21452 whole entry): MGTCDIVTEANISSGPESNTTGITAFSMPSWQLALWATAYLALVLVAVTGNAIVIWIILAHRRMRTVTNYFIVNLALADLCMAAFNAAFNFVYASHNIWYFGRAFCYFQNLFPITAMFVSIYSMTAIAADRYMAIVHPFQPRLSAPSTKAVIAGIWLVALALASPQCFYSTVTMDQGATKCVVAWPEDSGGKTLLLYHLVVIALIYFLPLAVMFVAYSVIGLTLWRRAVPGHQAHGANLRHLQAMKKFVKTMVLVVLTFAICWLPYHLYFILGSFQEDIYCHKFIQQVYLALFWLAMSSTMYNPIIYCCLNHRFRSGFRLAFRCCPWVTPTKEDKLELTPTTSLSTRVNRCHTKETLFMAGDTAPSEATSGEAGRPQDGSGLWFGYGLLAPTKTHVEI
Sequence of tachykinin receptor-3 (P29371 whole entry): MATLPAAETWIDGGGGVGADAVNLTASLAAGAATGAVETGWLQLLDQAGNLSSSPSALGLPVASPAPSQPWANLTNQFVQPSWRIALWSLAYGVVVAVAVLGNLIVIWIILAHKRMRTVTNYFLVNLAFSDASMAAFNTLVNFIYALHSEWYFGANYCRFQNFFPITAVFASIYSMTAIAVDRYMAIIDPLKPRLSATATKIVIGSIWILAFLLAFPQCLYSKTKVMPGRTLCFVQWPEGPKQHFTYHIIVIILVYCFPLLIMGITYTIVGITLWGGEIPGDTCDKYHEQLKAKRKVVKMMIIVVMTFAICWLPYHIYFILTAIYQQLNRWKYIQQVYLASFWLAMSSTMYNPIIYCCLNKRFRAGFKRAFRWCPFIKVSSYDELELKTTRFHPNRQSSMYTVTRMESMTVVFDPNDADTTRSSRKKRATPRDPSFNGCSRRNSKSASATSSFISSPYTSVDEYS
Sequence of tachykinin receptor-1 (P25103 whole entry): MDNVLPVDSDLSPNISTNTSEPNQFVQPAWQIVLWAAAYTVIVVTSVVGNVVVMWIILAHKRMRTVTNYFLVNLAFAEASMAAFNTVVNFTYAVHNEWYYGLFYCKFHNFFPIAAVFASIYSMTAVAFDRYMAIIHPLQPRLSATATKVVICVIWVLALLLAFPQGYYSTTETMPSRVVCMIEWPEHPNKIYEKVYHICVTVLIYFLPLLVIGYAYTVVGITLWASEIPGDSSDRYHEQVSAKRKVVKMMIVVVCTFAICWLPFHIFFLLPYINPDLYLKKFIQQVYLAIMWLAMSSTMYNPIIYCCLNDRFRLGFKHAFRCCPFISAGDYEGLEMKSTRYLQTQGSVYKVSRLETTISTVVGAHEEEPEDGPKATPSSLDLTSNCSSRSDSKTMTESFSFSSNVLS

Row | SMILES | EC50 (wild-type C. elegans) [nM] | IC50 (Flt-3 receptor) [nM] | Ki (tachykinin receptor-2) [nM] | Ki (tachykinin receptor-3) [nM] | Ki (tachykinin receptor-1) [nM] | increase in pharyngeal pumping (wild-type C. elegans; 10 µM, cultured 3 d from L1, long-term video (60 s) and short-term manual (10 s) measurements) | exposure time after which the feeding elevating effect was notable (wild-type C. elegans; 10 µM, naïve day 1 gravid adults) [h] | effect on the pharyngeal pumping rate (wild-type C. elegans; wild-type, 10 µM versus 0.1% DMSO) | Pharmacological relationship (tkr-1(RNAi) C. elegans; to C. elegans tkr-1 (C38C10.1), homolog of human Tkr-1) | Nile Red staining (C. elegans) | pharyngeal pumping rate, mean [1] [%] | pharyngeal pumping rate, mean [2] [%] | pharyngeal pumping rate, mean [3] [%] | pharyngeal pumping rate, mean [4] [%] | pharyngeal pumping rate, mean [5] [%] | pharyngeal pumping rate, mean (tkr-1(RNAi) C. elegans; percentage of the pumping rate of tkr-1(RNAi) animals on DMSO, 10 µM B16, D20, K9, F15, H6, 200 nM L-371257, SB 222200, 2 µM MMPIP, 5-flurox) [%] | Ki (Oxtr) [nM]
1 | O=C1Nc2ccc(F)cc2/C1=C1/Nc2ccccc2C1=NO [5-flurox, 5′-fluoroindirubinoxime, reference compound] | 40 | 15 |  |  |  |  |  |  |  |  |  |  |  |  |  |  | 
2 | COc1ccc(OC)c(-c2cc(NC(=O)c3ccccc3C(N)=O)c3ccccc3n2)c1 [H6] |  |  | > 10000 | > 10000 | 1900 | 7%–12% | ~16 | increased | antagonist | increased |  |  |  |  |  |  | 
3 | COc1cc(OC2CCN(C(C)=O)CC2)ccc1C(=O)N1CCC(N2C(=O)OCc3ccccc32)CC1 [L-371257, 1-(1-[4-[(N-acetyl-4-piperidinyl)oxy]-2-methoxybenzoyl]piperidin-4-yl)-4H-3,1-benzoxazin-2(1H)-one, reference compound] | 10 |  |  |  |  |  |  |  |  |  | 99.2 | 108.5 | 105.0 | 100.8 | 94.8 | 109.9 | 4.6
